Results on 50 compounds are retold here after ChEMBL document CHEMBL2163300, “Mitogen-activated protein kinase-activated protein kinase 2 (MAPKAP-K2) as an antiinflammatory target: discovery and in vivo activity of selective pyrazolo[1,5-a]pyrimidine inhibitors using a focused library and structure-based optimization approach” (J Med Chem, 2012).

The target in data set [1] is Cyclin-dependent kinase 2 (Homo sapiens, UniProt P24941).
Description: Inhibition of CDK2 after 60 mins using [33P]-gamma-ATP by liquid scintillation counter
Data set [2] has as its target T1, MAP kinase-activated protein kinase 2 (Homo sapiens, UniProt P49137). The data set can be described thus: Inhibition of MAPKAP-K2 using KKLNRTLSVA as substrate and [33P]-gamma-ATP after 30 mins by liquid scintillation counter.
The subject of a further data set is THP-1. The data set can be described thus: Cytotoxicity against human THP1 cells assessed as cell viability by MTS assay. The data set is classed as cell-based. Background: Tetrazolium assays rely on reduction of a dye to a coloured formazan, in cell work by metabolically active cells.
Data set [3] can be described thus: AUC (0 to 24 hrs) in mouse at 1 mg/kg, po. The note with it: plasma. Further details: time < 24 hr, dose 1 mg/kg, route oral. The data set is classed as ADME, organism-based.
A short description of data set [4]: Oral bioavailability in mouse at 1 mg/kg. The data set is classed as ADME, organism-based. The note with it: in vivo.
Data set [5] addresses T1, MAP kinase-activated protein kinase 2. Nature of the data set: Inhibition of human MAPKAP-K2 in THP1 cells assessed as inhibition of LPS-induced TNFalpha production incubated 1 hr prior to LPS challenge measured 18 hrs post LPS challenge by HTRF assay. The data set is classed as cell-based, THP-1. A general note: Time-resolved FRET reads energy transfer from a long-lived donor to a nearby acceptor.

A short description of data set [6]: Half life in mouse at 1 mg/kg, iv. Also on record: dose 1 mg/kg, route intravenous. The data set is classed as ADME, organism-based. Conditions: in vivo.
Data set [7] in a line: Total clearance in mouse at 1 mg/kg, iv. The data set is classed as ADME, organism-based. Also on record: dose 1 mg/kg, route intravenous. Conditions: in vivo.
For the next data set, the system named is Mus musculus. The data set can be described thus: Antiinflammatory activity in po dosed C57BL/6 mouse assessed as decrease in LPS-induced serum TNFalpha level administered 30 mins prior to LPS challenge measured 60 mins post LPS challenge by ELISA. The class given is functional, organism-based.
Data set [8] deals with T1, MAP kinase-activated protein kinase 2. The data set can be described thus: Binding affinity to recombinant MAPKAP-K2 using KKKALSRQLSVAA as substrate after 4 mins by […]. For orientation: In SPR one partner is held on a chip, and binding of the other changes the refractive index at the surface.
The target is the same in data set [9]. Nature of the data set: Inhibition of MAPKAP-K2.
Data set [10] addresses Serine/threonine-protein kinase Chk2 (Homo sapiens) (UniProt O96017). Nature of the data set: Inhibition of human CHK2 at 30 uM by Cyclex assay.

Active and inactive are the calls of the source.

Chain of Serine/threonine-protein kinase Chk2 (Homo sapiens) (O96017 whole entry): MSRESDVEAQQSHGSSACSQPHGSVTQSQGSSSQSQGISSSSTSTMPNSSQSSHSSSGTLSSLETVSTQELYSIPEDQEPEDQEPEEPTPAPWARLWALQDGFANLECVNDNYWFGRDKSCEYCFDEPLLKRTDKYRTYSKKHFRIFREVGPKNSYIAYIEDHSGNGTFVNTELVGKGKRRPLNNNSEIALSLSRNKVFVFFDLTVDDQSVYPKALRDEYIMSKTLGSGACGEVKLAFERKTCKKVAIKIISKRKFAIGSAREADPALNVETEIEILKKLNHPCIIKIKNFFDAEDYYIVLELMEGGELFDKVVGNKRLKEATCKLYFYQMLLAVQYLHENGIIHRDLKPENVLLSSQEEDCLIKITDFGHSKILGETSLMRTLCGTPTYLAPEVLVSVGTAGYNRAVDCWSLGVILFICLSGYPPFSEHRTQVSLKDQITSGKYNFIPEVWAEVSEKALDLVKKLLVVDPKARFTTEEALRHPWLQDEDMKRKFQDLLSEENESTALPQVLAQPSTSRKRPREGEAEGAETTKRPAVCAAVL
T1 sequence (P49137 whole entry): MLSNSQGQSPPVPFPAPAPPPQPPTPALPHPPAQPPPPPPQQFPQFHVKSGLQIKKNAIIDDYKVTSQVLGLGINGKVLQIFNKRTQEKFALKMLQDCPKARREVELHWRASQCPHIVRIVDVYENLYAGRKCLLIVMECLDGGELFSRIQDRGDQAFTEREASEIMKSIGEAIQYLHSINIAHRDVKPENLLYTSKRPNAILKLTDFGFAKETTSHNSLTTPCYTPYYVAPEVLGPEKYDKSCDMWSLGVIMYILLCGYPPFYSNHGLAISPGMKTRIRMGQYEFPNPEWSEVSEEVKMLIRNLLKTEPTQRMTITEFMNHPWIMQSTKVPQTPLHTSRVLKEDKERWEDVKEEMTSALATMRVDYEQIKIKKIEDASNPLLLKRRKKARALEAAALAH

The IC50 is the point on the concentration scale where inhibition reaches its midpoint. Take `N[C@H]1CC[C@H](Nc2cc(Nc3ccc(F)c(Cl)c3)n3ncc(Br)c3n2)CC1`: the half-inhibitory concentration (IC50) was determined as 0.0034 µM in data set [1] and 9.2 µM in [2].

In the case of `Cc1c(N[C@H]2CCCNC2)nc2ccnn2c1Nc1ccc(C(=O)NC2CCCC2)cc1`, the half-maximal inhibitory concentration (IC50) was 49 µM in data set [1] and 0.14 µM in [2]. With `N[C@H]1CC[C@H](Nc2cc(Nc3ccc(F)c(Cl)c3)n3ncc(Cl)c3n2)CC1`, the 50% inhibitory concentration (IC50) in [1] came out at 0.003 µM; in data set [2] it was 8.1 µM. Regarding `CC(C)CCNc1cc(N[C@H]2CC[C@H](N)CC2)nc2ccnn12`, in data set [2], the half-maximal inhibitory concentration (IC50) stood at 12 µM. One may read the AUC(0-t) as exposure summed from dosing to a finite time, without extrapolation to infinity. A low value points to less exposure. As a reminder, the bioavailability is dose-corrected exposure relative to a reference, in per cent. A high value points to good availability. Usually half-life stands for the time needed for the level to fall by half in the phase considered. A lower half-life goes with fast loss. A word on the clearance: it is the rate of elimination divided by the concentration. A low value points to a low capacity for elimination. For `COCCOc1ccc(Nc2c(C)c(N[C@H]3CCCNC3)nc3ccnn23)cc1`, the 50% inhibitory concentration (IC50) was over 100 µM in the data set on THP-1, 22 µM in data set [1], 0.13 µM in [2] and 7.6 µM in data set [5]. Further, the AUC(0-t) at 24 h in [3] came to 316 nM·h. The compound further yielded a bioavailability in data set [4] of 80%. Further, the half-life in data set [6] is 1 h. Also, in [7], the clearance is 3.5 L/h/kg.

Take `Cc1c(N[C@H]2CC[C@H](N)CC2)nc2ccnn2c1Nc1cccc(OCc2ccccc2)c1`: inhibition in [2] was half-maximal at 3 µM (IC50). Take `N[C@H]1CC[C@H](Nc2cc(NCC3CCCCC3)n3nccc3n2)CC1`: half-maximal inhibition in data set [2] (IC50) required 11 µM. `Cc1cc2nc(N[C@H]3CC[C@H](N)CC3)cc(Nc3ccc(F)c(Cl)c3)n2n1` returned a concentration for half-maximal inhibition (IC50) in [2] of over 300 µM. In [2], `CC(=O)N[C@H]1CC[C@H](Nc2cc(Nc3ccc(F)c(Cl)c3)n3nccc3n2)CC1` registered a 50% inhibitory concentration (IC50) of over 100 µM. As to `CCOc1cccc(Nc2c(C)c(N[C@H]3CC[C@H](N)CC3)nc3ccnn23)c1`, the IC50 in data set [2] was found to be 1.4 µM.

As for `Cc1ccc(-n2nc(C(C)(C)C)cc2NC(=O)Nc2ccc(OCCN3CCOCC3)c3ccccc23)cc1`, the Activity result in the data set with Mus musculus was “Dose-dependent effect”. `Cc1c(N[C@H]2CC[C@H](N)CC2)nc2ccnn2c1Nc1ccc(OCc2ccccc2)cc1`: in data set [2], 0.7 µM corresponded to half-maximal inhibition (IC50). As for `Cc1c(N[C@H]2CCCNC2)nc2ccnn2c1Nc1ccc2c(cnn2C)c1`, the IC50 turned out to be 27 µM in [1] and 0.076 µM in data set [2]. In [2], `CCN(CC)[C@H]1CC[C@H](Nc2cc(Nc3ccc(F)c(Cl)c3)n3nccc3n2)CC1` registered a 50% inhibitory concentration (IC50) of over 100 µM.

The compound `CCOc1ccc(Nc2c(C)c(NCCO)nc3ccnn23)cc1` returned an IC50 in data set [2] of 83 µM. Turning to `Cc1ccc(-c2ccc3c(ccc4sc5c(c43)NC[C@@H](C)NC5=O)n2)cn1`, in data set [8], the IC50 was found to be 0.005 µM.

For the compound `N[C@H]1CC[C@H](Nc2nc3ccnn3c(Nc3ccc(F)c(Cl)c3)c2-c2ccccc2)CC1`, the IC50 in data set [1] worked out at 6 µM; in data set [2], 1.6 µM.

With `CCc1c(NC2CCCNC2)nc2ccnn2c1Nc1ccc(F)c(Cl)c1` (racemic), the concentration for half-maximal inhibition (IC50) in data set [1] is 24 µM; in data set [2] it was 0.7 µM. In the case of `N#Cc1c(N)nc2c(c1N)Cc1cc(O)c(O)cc1O2`, inhibition in data set [9] was half-maximal at 0.13 µM (IC50). In turn, `CCOc1ccc(Nc2c(C)c(N[C@H]3CCCNC3=O)nc3ccnn23)cc1` displayed a 50% inhibitory concentration (IC50) in data set [2] of over 100 µM.

For the compound `CCc1c(N[C@H]2CC[C@H](N)CC2)nc2ccnn2c1Nc1ccccc1Cl`, the IC50 in [1] was over 300 µM; in data set [2], 1.5 µM. On the same counts, the results for `Cc1c(N[C@H]2CC[C@H](N)CC2)nc2ccnn2c1Nc1ccc(F)c(Cl)c1` are 11 µM and 0.4 µM. In [2], `N[C@H]1CC[C@H](Nc2cc(NCc3ccccc3)n3nccc3n2)CC1` showed an IC50 of 7 µM. For `NC1CCCC(Nc2cc(Nc3ccc(F)c(Cl)c3)n3nccc3n2)C1` (centres undefined), the half-inhibitory concentration (IC50) in [2] was over 100 µM. For `CCc1c(N[C@H]2CC[C@H](N)CC2)nc2ccnn2c1Nc1ccc(F)c(Cl)c1`, the inhibition result in data set [10] is “inactive”. Further, the IC50 in [1] came out at 3.6 µM; in data set [2], 0.4 µM.

As for `CCOc1ccc(Nc2c(C)c(NCCN)nc3ccnn23)cc1`, the IC50 in data set [2] was determined as 2.5 µM.

For `Cc1nc2ccc(Nc3c(C)c(N[C@H]4CCCNC4)nc4ccnn34)cc2s1`, the concentration for half-maximal inhibition (IC50) came to 54 µM in the data set with THP-1, 25 µM in [1], 0.054 µM in data set [2] and 8.4 µM in data set [5]. Also, in data set [3], the AUC(0-t) at 24 h stood at 579 nM·h. In data set [4], this compound registered a bioavailability of 79%. In data set [6], the half-life is 2.6 h. In addition, the clearance in [7] was 3.5 L/h/kg. For the compound `Cc1c(N[C@H]2CC[C@H](N)CC2)nc2ccnn2c1Nc1ccccc1Cl`, the half-maximal inhibitory concentration (IC50) in data set [1] came to 6.4 µM; in data set [2] it was 1.7 µM. In [2], `CCN[C@H]1CC[C@H](Nc2cc(Nc3ccc(F)c(Cl)c3)n3nccc3n2)CC1` showed a 50% inhibitory concentration (IC50) of 2 µM. With `Cc1c(NC2CCCNC2)nc2ccnn2c1Nc1ccc(F)c(Cl)c1` (racemic), the IC50 in data set [1] was determined as 33 µM; in data set [2] it was 0.51 µM.

Regarding `Fc1ccc(Nc2cc(NC3CCCNC3)nc3ccnn23)cc1Cl` (racemic), the IC50 in data set [1] is 0.7 µM; in data set [2], 0.4 µM.

With `CCCc1c(N[C@H]2CC[C@H](N)CC2)nc2ccnn2c1Nc1ccc(F)c(Cl)c1`, the IC50 in [1] was 2.1 µM; in data set [2], 0.6 µM. `Fc1ccc(Nc2cc(NCC3CCNCC3)nc3ccnn23)cc1Cl` had a 50% inhibitory concentration (IC50) in [2] of over 100 µM. In turn, `CCOc1ccc(Nc2c(C)c(N(C)C3CCCNC3)nc3ccnn23)cc1` (racemic) displayed an IC50 in data set [2] of 26 µM.

Compound `Fc1ccc(Nc2cc(NC3CCCCC3)nc3ccnn23)cc1Cl` yielded a half-inhibitory concentration (IC50) in data set [2] of over 100 µM. The same measure, in the same setting: the result for `CCOc1ccc(Nc2c(C)c(NCCCN)nc3ccnn23)cc1` reads 8.7 µM. Compound `CN(c1ccc(F)c(Cl)c1)c1cc(N[C@H]2CC[C@H](N)CC2)nc2ccnn12` registered an IC50 in data set [2] of over 300 µM.

As to `CC(C)(C)c1cc2nc(N[C@H]3CC[C@H](N)CC3)cc(Nc3ccc(F)c(Cl)c3)n2n1`, in data set [2], the concentration for half-maximal inhibition (IC50) is over 300 µM.

For `N#Cc1cnn2c(Nc3ccc(F)c(Cl)c3)cc(N[C@H]3CC[C@H](N)CC3)nc12`, the IC50 was 0.004 µM in [1] and 3.1 µM in data set [2]. For the compound `CCOc1ccc(Nc2c(C)c(NCCCCN)nc3ccnn23)cc1`, in data set [2], half-maximal inhibition (IC50) was put at 4.1 µM. With `Fc1ccc(Nc2cc(NC3CCNCC3)nc3ccnn23)cc1Cl`, the concentration for half-maximal inhibition (IC50) in data set [2] came out at 25 µM.

For `N[C@H]1CC[C@H](Nc2cc(Nc3ccccc3Cl)n3nccc3n2)CC1`, the inhibition result in data set [10] was “inactive”. Also, the half-maximal inhibitory concentration (IC50) was 0.39 µM in data set [1] and 0.2 µM in data set [2]. With `CCOc1ccc(Nc2c(C)c(N[C@H]3CC[C@H](O)CC3)nc3ccnn23)cc1`, the IC50 in data set [2] is 89 µM. On the same count and under the same terms, to `CCOC(=O)c1cccc(Nc2c(C)c(N[C@H]3CC[C@H](N)CC3)nc3ccnn23)c1` belongs 1.9 µM; to `Nc1ccc(Nc2cc(Nc3ccc(F)c(Cl)c3)n3nccc3n2)cc1`, over 100 µM.

`CCOc1ccc(Nc2c(C)c(O[C@H]3CC[C@H](N)CC3)nc3ccnn23)cc1`: the IC50 in data set [2] was 0.57 µM. Regarding `CCOc1ccc(Nc2c(C)c(N[C@H]3CC[C@H](N)CC3)nc3ccnn23)cc1`, the inhibition entry in data set [10] was “inactive”. In data set [2], this compound registered an IC50 of 0.36 µM. For `CCOC(=O)c1ccc(Nc2c(C)c(N[C@H]3CC[C@H](N)CC3)nc3ccnn23)cc1`, in data set [2], the midpoint of inhibition, the IC50, lay at 0.7 µM.

As for `Cc1c(N[C@H]2CCCNC2)nc2ccnn2c1Nc1ccc(OCCN2CCOCC2)cc1`, the IC50 in data set [1] was determined as 62 µM; in [2], 0.16 µM. In the case of `CC(=O)c1ccc(-c2ccc(Nc3c(C)c(N[C@H]4CCCNC4)nc4ccnn34)cc2)s1`, the IC50 in [1] is 21 µM; in data set [2], 0.057 µM.
